The values below are quoted from earlier work in patent US20210352892A1, “MACROMOLECULAR AND NONPARTICULATE AGROCHEMICALS TO REDUCE VAPOR DRIFT” (University of Utah Research Foundation, priority 2019, published 2021).

For this data set the following is noted: at 25 ° C.

In the case of `COc1c(Cl)ccc(Cl)c1C(=O)O` [dicamba, 2-methoxy-3,6-dicholorobenzoic acid], the vapor pressure is recorded as 4.5 mPa.
